Assay results: US20120171660A1, “METHOD FOR SCREENING AND PURIFYING ENTEROVIRUS, METHOD FOR MASS-PRODUCING ENTEROVIRUS, AND METHOD FOR MANUFACTURING ENTEROVIRUS VACCINE” (priority 2011, published 2012)

Tests used:
CA16 = assay: ELISA, CA16 binding to galectin-1 coated plate; set-up: species or system Coxsackievirus A16; settings: 10^6 PFU of virus, OD450
EV71 [1] = assay: ELISA, EV71 binding to galectin-1 coated plate; set-up: species or system Enterovirus 71
Protocol: Except the aforementioned lectins, the binding activity between EV71 and mammalian lectin such as galectin-1 was also detected in the present embodiment. First, a different amount of EV71 (10 fold serial dilution from 10^6 PFU to 10^4 PFU) was incubated in a 96-well plate coated with galectin-1.
It means that the monosaccharides such as glucose may first bind to EV71 during the formation of EV71 viral particles, and the monosaccharides bound on EV71 may further participate in the binding between EV71 and galactin-1.

dengue virus (DV) = assay: ELISA, dengue virus binding to galectin-1 coated plate; settings: 10^6 PFU of virus, OD450
Protocol: In addition, 106 PFU of different viruses including EV71, CA16, influenza virus (Flu) or dengue virus (DV) were added into a 96-well plate coated with galactin-1. Then, anti-EV71 antibody and HRP-conjugated goat anti-mouse IgG antibody were sequentially added into the 96-well plate.

influenza virus (Flu) = assay: ELISA, influenza virus binding to galectin-1 coated plate; settings: 10^6 PFU of virus, OD450
[2] = molecular target: EV71 binding to galectin-1 (Homo sapiens, UniProt P09382); assay: ELISA, competition of monosaccharides with EV71 binding to galectin-1; set-up: species or system Enterovirus 71; settings: EV71 incubated with the sugar at different concentrations at 4° C. for 2 hours; galectin-1 coated plate
Sequence of EV71 binding to galectin-1 (P09382 2-135 limits assumed): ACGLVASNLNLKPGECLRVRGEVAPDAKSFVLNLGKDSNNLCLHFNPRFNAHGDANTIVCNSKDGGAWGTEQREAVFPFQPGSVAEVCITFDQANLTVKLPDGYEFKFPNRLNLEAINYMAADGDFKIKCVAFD
Protocol: ELISA was used to detect the competition between monosaccharides and EV71 or lectins. First, EV71 was incubated in a medium supplemented with galactose, glucose, N-acetyl galactosamines, sucrose, or mannose with different concentration (conc.) at 4° C. for 2 hours. […] It is because the monosaccharides bound on the EV71 may first bind to lectins, so the binding between lectins and EV71 may further be inhibited.

EV71 [3] = assay: ELISA, EV71 binding to monosaccharide-PAA coated plate; set-up: species or system Enterovirus 71; settings: OD450; for specific binding to EV71 (FIG. 1D): 10^6 PFU EV71, plate coated with monosaccharide-PAA, versus control without EV71
Protocol: ELISA was also performed to detect the binding activities between EV71 and monosaccharides in the present embodiment, and the process of ELISA of the present embodiment is similar to that of Embodiment 1.
(§1) In addition, specific bindings between different enteroviruses and monosaccharides were also detected. First, 10^6 PFU of enteroviruses, EV71, Coxsackievirus A16 (CA16), Coxsackievirus B3 (Cox B3, CB3), and Coxsackievirus B2 (Cox B2, CB2), were added in to a 96-well plate coated with glucose-PAA and galactose-PAA.

[4] = tested on: Coxsackievirus A16 (CA16); assay: ELISA, CA16 binding to monosaccharide-PAA coated plate; settings: 10^6 PFU; plate coated with glucose-PAA or galactose-PAA; OD450
Protocol: as §1

EV71 on SK-N-SH cells = assay: Plaque assay, EV71 replication on SK-N-SH cells with monosaccharides; assay type: cell-based, Enterovirus 71; settings: EV71 incubated with 0.625 M, 0.125M, 0.25M sugar, 72 hours; for production of EV71 on SK-N-SH cells, virus titer (FIG. 4A): 1 hour at 37° C., no wash; for production of EV71 on SK-N-SH cells, absorption stage (FIG. 4B): unbound viruses washed away by PBS after 1 hour
Protocol: Plaque assay was used to understand the relation between the monosaccharides and the replication of EV71 in the present embodiment.
Host cells, SK-N-SH cells (2×10^5 cells/well), were seeded in a 24-well plate, and incubated for 16-18 hours to form a monolayer cell. SK-N-SH cells were infected with EV71, which was incubated with different concentrations of glucose, galactose or N-acetylgalactosamine (0.625 M, 0.125M, and 0.25M). After 1 hour incubation at 37° C., DMEM with 1.6% methylcellulose and 2% FBS was added to incubate at 37° C. for 72 hours.
First, SK-N-SH cells were infected with EV71, which were incubated with different concentrations of glucose, galactose or N-acetylgalactosamine (0.625 M, 0.125M, and 0.25M). After 1 hour incubation at 37° C., unbound viruses were washed away by PBS, DMEM with 1.6% methylcellulose and 2% FBS was added to incubate at 37° C. for 72 hours.
In addition, SK-N-SH cells were infected with EV71 in a glucose-containing medium. After 1 hour incubation at 37° C., viruses, which were unbound on the 24-well plate were washed away with PBS. Then, the infected host cells were incubated in a medium containing 0.25M glucose or galactose (supplemented with 1.6% methylcellulose and 2% FBS) at 37° C. for 72 hours.

EV71 [5] = assay: ELISA, biotin-labeled monosaccharide-PAA binding to EV71 captured on anti-EV71 antibody plate; set-up: species or system Enterovirus 71; settings: OD450; for binding of EV71 to monosaccharide (FIG. 1A): 10^6 PFU of EV71, biotin-labeled monosaccharide-PAA, compared to control without viruses or 10^6 PFU Dengue viruses; for binding activity between EV71 and monosaccharide versus amount of EV71 (FIG. 1B): 10 fold serial dilution of EV71 from 10^6 PFU to 10^2 PFU
Protocol: Enzyme-linked immunosorbent assay (ELISA) was used to detect the binding activities between EV71 and monosaccharides in the present embodiment. First, EV71 was added into a 96-well plate (Genesis, Taiwan) and bound to anti-EV71 antibody coated on the 96-well plate. Then, biotin-labeled monosaccharide polymers, such as glucose-PAA (polyacrylamide), mannose-PAA, galactose-PAA, N-acetyl-galactosamine-PAA (GalNAc-PAA), and N-acetyl-glucosamine-PAA (GlcNAc-PAA) were added into the 96-well plate, and reacted with EV71 at room temperature.

[6] = tested on: Coxsackievirus B2 (Cox B2, CB2); assay: ELISA, CB2 binding to monosaccharide-PAA coated plate; settings: 10^6 PFU; plate coated with glucose-PAA or galactose-PAA; OD450
Protocol: as §1

[7] = tested on: Coxsackievirus B3 (Cox B3, CB3); assay: ELISA, CB3 binding to monosaccharide-PAA coated plate; settings: 10^6 PFU; plate coated with glucose-PAA or galactose-PAA; OD450
Protocol: as §1

galactin-1: mammalian lectin such as galectin-1, coated on 96-well plate
binding of galectin-1 to CA16 (FIG. 2D) (CA16): specifically binds | binding to galectin-1 of EV71 incubated in sugar-free medium (FIG. 2E) (EV71 [1]; 10^6 PFU EV71 incubated in glucose-free medium): cannot bind | binding of galectin-1 to EV71 (FIG. 2D) (EV71 [1]; 10^6 PFU of virus, galectin-1 coated plate, OD450): specifically binds | binding of EV71 to galectin-1 (FIG. 2C) (EV71 [1]; EV71 10 fold serial dilution from 10^6 PFU to 10^4 PFU, bound amount increases with EV71 added): binds | binding of galectin-1 to dengue virus (FIG. 2D) (dengue virus (DV)): does not bind | binding of galectin-1 to influenza virus (FIG. 2D) (influenza virus (Flu)): does not bind

O=C[C@H](O)[C@@H](O)[C@@H](O)[C@H](O)CO [galactose]
effect on binding between EV71 and lectins (galectin-1) by competition (FIG. 3) [2]: partially inhibited | specific binding to EV71 (FIG. 1D) (EV71 [3]): can specifically bind | binding activity to EV71 (FIGS. 1E, 1F) (EV71 [3]; 10^6 PFU, plate coated with glucose-PAA or galactose-PAA): high binding activity | specific binding to CA16 (FIGS. 1E, 1F) [4]: can specifically bind | production of EV71 on SK-N-SH cells, virus titer (FIG. 4A) (EV71 on SK-N-SH cells): enhance the production of EV71 | production of EV71 on SK-N-SH cells, absorption stage (FIG. 4B) (EV71 on SK-N-SH cells): enhance the production of EV71 | binding of EV71 to monosaccharide (FIG. 1A) (EV71 [5]): can bind | binding activity between EV71 and monosaccharide versus amount of EV71 (FIG. 1B) (EV71 [5]): enhanced as the amount of EV71 was increased | binding activity to CB2 (FIGS. 1E, 1F) [6]: do not show any binding activity | binding activity to CB3 (FIGS. 1E, 1F) [7]: do not show any binding activity

CC(=O)N[C@H]1C(O)O[C@H](CO)[C@H](O)[C@@H]1O (some centres unmarked) [N-acetyl-galactosamine]
effect on binding between EV71 and lectins (galectin-1) by competition (FIG. 3) [2]: partially inhibited | specific binding to EV71 (FIG. 1D) (EV71 [3]): can specifically bind | production of EV71 on SK-N-SH cells, virus titer (FIG. 4A) (EV71 on SK-N-SH cells): enhance the production of EV71 | production of EV71 on SK-N-SH cells, absorption stage (FIG. 4B) (EV71 on SK-N-SH cells): enhance the production of EV71 | binding of EV71 to monosaccharide (FIG. 1A) (EV71 [5]): can bind | binding activity between EV71 and monosaccharide versus amount of EV71 (FIG. 1B) (EV71 [5]): enhanced as the amount of EV71 was increased

CC(=O)N[C@H]1C(O)O[C@H](CO)[C@@H](O)[C@@H]1O (some centres unmarked) [N-acetyl-glucosamine]
specific binding to EV71 (FIG. 1D) (EV71 [3]): can specifically bind
